Test results as given in the supplement of paper PMC10307832.

Assays:
Assay in all cases: relative viability (nuclei count vs DMSO), 5 days (fraction); higher = more cells survive
[1] = compound: C1CSC2=C(C(=O)N1)SC3=C2C=C(C=C3)O [kb NB 142-70] + CC(=O)Nc1cccc(-n2c(=O)n(C3CC3)c(=O)c3c(Nc4ccc(I)cc4F)n(C)c(=O)c(C)c32)c1 [Trametinib] (partner 0.02 µM)
Procedure, shortened: (§1)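 Lung cancer cell lines were seeded in 1536-well plates and dosed by pin tool the next day, with either a single drug or a fixed anchor-drug dose combined with five library-drug doses (not always all listed) spaced in √10 steps. Five days later, one step fixed the cells and stained their nuclei (final 0.05% Triton X-100, 1% formaldehyde, 1 ug/ml Hoechst), and nuclei were counted on 4× images. Relative viability is the nuclei count in treated wells divided by the count in vehicle wells, and each value is the median of duplicate plates.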

kb NB 142-70 + Dasatinib = compound: C1CSC2=C(C(=O)N1)SC3=C2C=C(C=C3)O [kb NB 142-70] + Cc1nc(Nc2ncc(C(=O)Nc3c(C)cccc3Cl)s2)cc(N2CCN(CCO)CC2)n1 [Dasatinib] (partner 0.075 µM)
Procedure, shortened: as §1

[2] = compound: NCC(=O)Nc1ccc(-n2nc(C(F)(F)F)cc2-c2ccc3c(ccc4ccccc43)c2)cc1 + CC(C)C[C@H](NC(=O)[C@H](Cc1ccccc1)NC(=O)c1cnccn1)B(O)O [Bortezomib] (partner 0.002 µM)
Procedure, shortened: as §1

[3] = compound: NCC(=O)Nc1ccc(-n2nc(C(F)(F)F)cc2-c2ccc3c(ccc4ccccc43)c2)cc1 + Cc1cc(Nc2cc(N3CCN(C)CC3)nc(Sc3ccc(NC(=O)C4CC4)cc3)n2)n[nH]1 [Tozasertib] (partner 0.1 µM)
Procedure, shortened: as §1

Cell Line | relative viability ([1]; first compound 0.1 µM) | relative viability ([1]; first compound 1 µM) | relative viability ([1]; first compound 3.162 µM) | relative viability (kb NB 142-70 + Dasatinib; first compound 0.1 µM) | relative viability (kb NB 142-70 + Dasatinib; first compound 1 µM) | relative viability (kb NB 142-70 + Dasatinib; first compound 3.162 µM) | relative viability ([2]; first compound 0.02 µM) | relative viability ([2]; first compound 0.06325 µM) | relative viability ([2]; first compound 0.2 µM) | relative viability ([2]; first compound 0.6325 µM) | relative viability ([2]; first compound 2 µM) | relative viability ([3]; first compound 0.02 µM) | relative viability ([3]; first compound 0.06325 µM) | relative viability ([3]; first compound 0.2 µM) | relative viability ([3]; first compound 0.6325 µM) | relative viability ([3]; first compound 2 µM)
LU99A | 0.559 | 0.598 | 0.467 | 0.496 | 0.583 | 0.405 | 1.14 | 1.27 | 1.06 | 1.07 | 1.1 | 0.241 | 0.273 | 0.259 | 0.271 | 0.265
LXF-289 | 0.668 | 0.662 | 0.69 | 0.212 | 0.215 | 0.21 | 1.05 | 1.1 | 0.966 | 1.02 | 1.01 | 0.233 | 0.196 | 0.202 | 0.214 | 0.197
NCI-H23 | 0.37 | 0.29 | 0.278 | 0.792 | 0.713 | 0.287 | 0.908 | 1.11 | 1.1 | 1.02 | 1.12 | 0.332 | 0.453 | 0.314 | 0.358 | 0.369
NCI-H322M | 0.51 | 0.525 | 0.598 | 0.24 | 0.278 | 0.269 | 1.41 | 1.29 | 1.15 | 1.18 | 1.14 | 0.54 | 0.461 | 0.517 | 0.491 | 0.517
NCI-H441 | 0.473 | 0.383 | 0.287 | 0.634 | 0.575 | 0.366 | 0.931 | 0.481 | 0.308 | 0.409 | 0.361 | 0.642 | 0.522 | 0.747 | 0.603 | 0.697
NCI-H460 | 0.205 | 0.192 | 0.228 | 0.504 | 0.422 | 0.336 | 1.21 | 1.11 | 1.07 | 1.03 | 1.07 | 0.397 | 0.591 | 0.485 | 0.47 | 0.394
NCI-H520 | 0.69 | 0.618 | 0.386 | 0.168 | 0.197 | 0.173 | 0.646 | 0.568 | 1.05 | 0.671 | 0.789 | 0.492 | 0.425 | 0.402 | 0.424 | 0.398
NCI-H596 | 0.792 | 0.854 | 0.65 | 0.551 | 0.571 | 0.442 | 1.27 | 1.1 | 0.883 | 1.96 | 1.05 | 1 | 0.911 | 1.02 | 0.925 | 0.903
NCI-H647 | 0.505 | 0.51 | 0.597 | 0.185 | 0.189 | 0.119 | 1.14 | 1.18 | 1.09 | 1.04 | 0.99 | 0.286 | 0.314 | 0.425 | 0.233 | 0.254
NCI-H650 | 0.939 | 1.22 | 0.895 | 0.495 | 0.475 | 0.377 | 0.663 | 1.02 | 0.931 | 0.677 | 0.907 | 0.691 | 0.754 | 0.761 | 0.676 | 0.631
NCI-H661 | 0.532 | 0.578 | 0.567 | 0.916 | 0.89 | 0.796 | 0.785 | 0.853 | 0.737 | 0.784 | 0.762 | 0.37 | 0.343 | 0.356 | 0.362 | 0.341
NCI-H727 | 0.419 | 0.367 | 0.316 | 0.427 | 0.354 | 0.272 | 0.849 | 0.977 | 0.724 | 0.847 | 1.04 | 0.648 | 0.664 | 0.588 | 0.502 | 0.711
NCI-H838 | 0.546 | 0.525 | 0.532 | 0.268 | 0.282 | 0.301 | 0.81 | 0.788 | 1.06 | 0.746 | 0.727 | 0.264 | 0.35 | 0.299 | 0.285 | 0.291
NCI-H1355 | 0.384 | 0.387 | 0.447 | 0.7 | 0.642 | 0.64 | 1.22 | 1.28 | 1.15 | 1.19 | 1.29 | 0.558 | 0.657 | 0.574 | 0.57 | 0.57
NCI-H1437 | 0.601 | 0.704 | 0.502 | 0.485 | 0.459 | 0.433 | 0.531 | 0.422 | 0.536 | 0.487 | 0.499 | 0.407 | 0.383 | 0.413 | 0.402 | 0.387
NCI-H1650 | 0.557 | 0.507 | 0.761 | 0.348 | 0.382 | 0.253 | 0.235 | 0.215 | 0.188 | 0.191 | 0.195 | 0.389 | 0.438 |  | 0.453 | 0.347
NCI-H1651 | 0.786 | 0.858 | 0.834 | 0.438 | 0.44 | 0.174 | 0.961 | 0.919 | 0.977 | 0.909 | 0.985 | 0.703 | 0.694 | 0.906 | 0.588 | 0.676
NCI-H1666 | 0.842 | 0.934 | 0.776 | 0.849 | 0.808 | 0.732 | 0.788 | 0.769 | 1.03 | 0.951 | 0.906 | 0.579 | 0.63 | 0.578 | 0.584 | 0.572
NCI-H1734 | 0.717 | 0.633 | 0.531 | 0.449 | 0.421 | 0.278 | 1.1 | 0.957 | 0.886 | 1.02 | 0.891 | 0.28 | 0.271 | 0.276 | 0.286 | 0.254
